Consider 22 compounds from US10752588B2 (The Broad Institute, Inc., priority 2014, dated 2020).

Read-outs that look alike come from different tables or passages of the source.

The target of data set [1] is T1, human D2R/β-arrestin (Homo sapiens (Human), UniProt P14416). Nature of the data set: cell-based. As to conditions: cAMP Antagonist.
In data set [2] the target is T1, human D2R/β-arrestin. As to the kind of experiment: β-Arrestin agonist assay (PathHunter). As to conditions: CHO-K1 cell line expressing human D2R/β-arrestin. Type of data set: cell-based. Summed up: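 After compound incubation, detection reagent (Buffer:Emerald II:Galactor-Star, 19:5:1) added and luminescence or fluorescence read.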
For data set [3], the target named is T1, human D2R/β-arrestin. Nature of the data set: Gi/cAMP agonist assay (Lance Ultra cAMP, Forskolin). It counts as cell-based. The settings on record: CHO-K1 cell line expressing human D2R/β-arrestin. Summed up: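 Cells were plated and incubated before compounds were pin-transferred and incubated for 10 min at 37 °C. Forskolin was then added to stimulate cAMP. cAMP was detected by Lance Ultra TR-FRET using Eu-cAMP tracer and ULight-anti-cAMP antibody.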

Data set [4] deals with T1, human D2R/β-arrestin. The settings on record: read-out: β-arrestin Antagonist.
Data set [5] concerns the target T1, human D2R/β-arrestin. Nature of the data set: cell-based. As to conditions: β-arrestin Antagonist, CHO-K1 cell line expressing human D2R/β-arrestin; quinpirole used as agonist.
Data set [6] is described as follows: Microsomal stability, mouse.
[7] abbreviates: CHO-K1 cell line expressing human D2R/β-arrestin, quinpirole used as agonist.

T1 sequence (P14416 whole entry): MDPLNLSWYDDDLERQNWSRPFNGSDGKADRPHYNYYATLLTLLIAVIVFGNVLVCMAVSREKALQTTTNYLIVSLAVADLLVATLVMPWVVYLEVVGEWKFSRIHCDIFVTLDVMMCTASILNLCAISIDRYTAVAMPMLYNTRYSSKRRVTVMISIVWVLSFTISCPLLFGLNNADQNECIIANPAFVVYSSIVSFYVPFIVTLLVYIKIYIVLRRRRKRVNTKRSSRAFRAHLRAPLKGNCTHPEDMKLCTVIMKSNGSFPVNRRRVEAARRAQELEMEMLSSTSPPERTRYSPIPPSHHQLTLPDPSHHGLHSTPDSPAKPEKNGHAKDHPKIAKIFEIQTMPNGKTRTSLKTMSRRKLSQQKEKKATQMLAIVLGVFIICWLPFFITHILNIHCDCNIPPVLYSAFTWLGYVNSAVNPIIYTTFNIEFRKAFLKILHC

The term EC50 denotes the concentration that produces a half-maximal response. High values mean weaker potency, low ones greater potency. In the case of `O=C(NC(c1ccc(Cl)cc1)c1ccccn1)C1CCN(CCOc2cccc(Cl)c2)CC1` (single isomer, unassigned) [Compound 1b, 1-(2-(3-chlorophenoxy)ethyl)-N-((4-chlorophenyl)(pyridin-2-yl)methyl)piperidine-4-carboxamide], the IC50 at human D2R/β-arrestin [1] (setting [7]) is > 30 µM; on human D2R/β-arrestin [4] (setting [7]) it was 1000 to 10000 nM. Besides, the results for the concentration for a half-maximal effect (EC50) on human D2R/β-arrestin [2] and on human D2R/β-arrestin [3] were 1 to 10 µM and < 100 nM, respectively.

In the case of `COc1cccc(C(c2ccccn2)N(C)CC2CCN(CCOc3ccccc3)CC2)c1` (single isomer, unassigned) [Compound 76b, 1-(3-methoxyphenyl)-N-methyl-N-((1-(2-phenoxyethyl)piperidin-4-yl)methyl)-1-(pyridin-2-yl)methanamine], the figures for the IC50 on human D2R/β-arrestin [1] (setting [7]) and at human D2R/β-arrestin [4] (setting [7]) were 1 to 10 µM and 1000 to 10000 nM, respectively. Besides, the results for the EC50 on human D2R/β-arrestin [2] and at human D2R/β-arrestin [3] were > 30 µM and 1000 to 10000 nM, respectively.

With `O=C(NC(c1ccc(Cl)cc1)c1ccncc1F)C1CCN(CCOc2ccccc2F)CC1` (single isomer, unassigned) [Compound 91b, N-((4-chlorophenyl)(3-fluoropyridin-4-yl)methyl)-1-(2-(2-fluorophenoxy)ethyl)piperidine-4-carboxamide], the IC50 is 0.1 to 1 µM on human D2R/β-arrestin [1] (setting [7]) and 100 to 1000 nM on human D2R/β-arrestin [5]. The results for the half-maximal effective concentration (EC50) at human D2R/β-arrestin [2] and on human D2R/β-arrestin [3] were > 30 µM and > 30000 nM, respectively. Further, the “Microsomal Stability: % remaining after 60 minutes” value (“Microsomal Stability: % remaining” for short) in data set [6] is “m1%”.

With `O=C(NC(c1cccc(OC(F)(F)F)c1)c1ccccn1)C1CCN(CCOc2ccccc2F)CC1` (single isomer, unassigned) [Compound 93b, 1-(2-(2-fluorophenoxy)ethyl)-N-(pyridin-2-yl(3-(trifluoromethoxy)phenyl)methyl)piperidine-4-carboxamide], the figures for the IC50 at human D2R/β-arrestin [1] (setting [7]) and at human D2R/β-arrestin [4] (setting [7]) were > 30 µM and 1000 to 10000 nM, respectively. Moreover, the concentration for a half-maximal effect (EC50) on human D2R/β-arrestin [2] was > 30 µM; at human D2R/β-arrestin [3], 100 to 1000 nM. The “Microsomal Stability: % remaining” value in data set [6] is recorded as “m19%”.

Regarding `CC(C1CCN(CCOc2ccccc2)CC1)N(C)C(c1ccc(Cl)cc1)c1ccccn1` (single isomer, unassigned) [Compound 97b, N-((4-chlorophenyl)(pyridin-2-yl)methyl)-N-methyl-1-(1-(2-phenoxyethyl)piperidin-4-yl)ethan-1-amine], the IC50 was in the range of 0.1 to 1 µM at human D2R/β-arrestin [1] (setting [7]) and 100 to 1000 nM on human D2R/β-arrestin [5]. For the same compound, the figures for the EC50 on human D2R/β-arrestin [2] and on human D2R/β-arrestin [3] were > 30 µM and 100 to 1000 nM, respectively. Besides, the “Microsomal Stability: % remaining” value in data set [6] is reported as “m3%”.

In the case of `CC1(CNC(c2ccc(F)cc2)c2ccccn2)CCN(CCOc2ccccc2C(F)(F)F)CC1` (single isomer, unassigned) [Compound 101b, 1-(4-fluorophenyl)-N-((4-methyl-1-(2-(2-(trifluoromethyl)phenoxy)ethyl)piperidin-4-yl)methyl)-1-(pyridin-2-yl)methanamine], on human D2R/β-arrestin [2], the half-maximal effective concentration (EC50) is > 30 µM. Moreover, the IC50 on human D2R/β-arrestin [4] (setting [7]) was in the range of 100 to 1000 nM.

As to `CC(C)N(CC1CCN(CCOc2ccccc2)CC1)C(c1ccc(Cl)cc1)c1ccccn1` (single isomer, unassigned) [Compound 103b, N-((4-chlorophenyl)(pyridin-2-yl)methyl)-N-((1-(2-phenoxyethyl)piperidin-4-yl)methyl)propan-2-amine], the IC50 on human D2R/β-arrestin [1] is > 30 µM; at human D2R/β-arrestin [4], 100 to 1000 nM. For the same compound, the results for the EC50 at human D2R/β-arrestin [2] and on human D2R/β-arrestin [3] were 0.1 to 1 µM and < 100 nM, respectively.

Take `Clc1ccc(C(c2ccccn2)N2CCC3(CCN(CCOc4ccccc4)CC3)C2)cc1` (single isomer, unassigned) [Compound 105a, 2-((4-chlorophenyl)(pyridin-2-yl)methyl)-8-(2-phenoxyethyl)-2,8-diazaspiro[4.5]decane]: the values for the IC50 at human D2R/β-arrestin [1] (setting [7]) and at human D2R/β-arrestin [5] were > 30 µM and 100 to 1000 nM, respectively. Also, the EC50 on human D2R/β-arrestin [2] is 0.1 to 1 µM; on human D2R/β-arrestin [3] it was < 100 nM. The “Microsomal Stability: % remaining” value in data set [6] is recorded as “m1%”.

As for `O=C(NC(c1ccc2c(c1)OC(F)(F)O2)c1ccccn1)C1CCN(CCOc2ccc(F)cc2F)CC1` (single isomer, unassigned) [Compound 130b, N-((2,2-difluorobenzo[d][1,3]dioxol-5-yl)(pyridin-2-yl)methyl)-1-(2-(2,4-difluorophenoxy)ethyl)piperidine-4-carboxamide], the IC50 is > 30 µM at human D2R/β-arrestin [1] (setting [7]) and 1000 to 10000 nM at human D2R/β-arrestin [4] (setting [7]). For the same compound, the half-maximal effective concentration (EC50) on human D2R/β-arrestin [2] was 0.1 to 1 µM; on human D2R/β-arrestin [3], < 100 nM.

With `CN(CC1CCN(CCOc2ccccc2F)CC1)C(c1ccc2c(c1)OCO2)c1ccccn1` (single isomer, unassigned) [Compound 138b, 1-(benzo[d][1,3]dioxol-5-yl)-N-((1-(2-(2-fluorophenoxy)ethyl)piperidin-4-yl)methyl)-N-methyl-1-(pyridin-2-yl)methanamine], the IC50 was < 0.1 µM at human D2R/β-arrestin [1] (setting [7]) and 100 to 1000 nM at human D2R/β-arrestin [4] (setting [7]). The concentration for a half-maximal effect (EC50) at human D2R/β-arrestin [2] is > 30 µM; at human D2R/β-arrestin [3], < 100 nM.

For `COc1cccc(C(NC(=O)C2CCN(CCOc3ccccc3)CC2)c2ccccc2)c1` (centres unmarked) [Compound 46], the 50% effective concentration (EC50) at human D2R/β-arrestin [2] is > 30 µM. Also, the IC50 on human D2R/β-arrestin [4] (setting [7]) fell in the range of 1000 to 10000 nM.

`CN(C(=O)C1CCN(CCOc2ccccc2)CC1)C(c1ccc(Cl)cc1)c1ccccn1` (centres unmarked) [Compound 51, N((4-chlorophenyl)(pyridin-2-yl)methyl)-N-methyl-1-(2-phenoxyethyl) piperidine-4-carboxamide]: the figures for the IC50 at human D2R/β-arrestin [1] (setting [7]) and at human D2R/β-arrestin [5] were > 30 µM and 1000 to 10000 nM, respectively. Further, the EC50 is > 30 µM on human D2R/β-arrestin [2] and 100 to 1000 nM at human D2R/β-arrestin [3]. Besides, the “Microsomal Stability: % remaining” value in data set [6] is recorded as “m0%”.

As for `O=C(NC(c1cccc(OC(F)(F)F)c1)c1ccccn1)C1CCN(CCOc2ccccc2F)CC1` (centres unmarked) [Compound 93, 1-(2-(2-fluorophenoxy)ethyl)-N-(pyridin-2-yl(3-(trifluoromethoxy)phenyl)methyl)piperidine-4-carboxamide], the IC50 at human D2R/β-arrestin [1] (setting [7]) is > 30 µM; on human D2R/β-arrestin [5], 100 to 1000 nM. In addition, the EC50 is > 30 µM at human D2R/β-arrestin [2] and < 100 nM on human D2R/β-arrestin [3]. The “Microsomal Stability: % remaining” value in data set [6] is on record as “m12%”.

For `O=C(NC(c1ccc(Cl)cc1)c1ccccc1F)C1CCN(CCOc2ccccc2F)CC1` (centres unmarked) [Compound 96, N-((4-chlorophenyl)(2-fluorophenyl)methyl)-1-(2-(2-fluorophenoxy)ethyl) piperidine-4-carboxamide], the figures for the IC50 at human D2R/β-arrestin [1] (setting [7]) and at human D2R/β-arrestin [5] were 0.1 to 1 µM and 100 to 1000 nM, respectively. Further, the EC50 on human D2R/β-arrestin [2] was > 30 µM; on human D2R/β-arrestin [3] it was 100 to 1000 nM. Further, in data set [6], the “Microsomal Stability: % remaining” value is on record as “m26%”.

Regarding `Clc1ccc(C(OCC2CCN(CCOc3ccccc3)CC2)c2ccccn2)cc1` (centres unmarked) [Compound 99, 2-((4-chlorophenyl)((1-(2-phenoxyethyl)piperidin-4-yl)methoxy)methyl)pyridine], the values for the IC50 at human D2R/β-arrestin [1] (setting [7]) and on human D2R/β-arrestin [5] were > 30 µM and 1000 to 10000 nM, respectively. Also, the values for the half-maximal effective concentration (EC50) on human D2R/β-arrestin [2] and at human D2R/β-arrestin [3] were > 30 µM and 100 to 1000 nM, respectively. For the same compound, the “Microsomal Stability: % remaining” value in data set [6] is listed as “m7%”.

As to `Clc1ccc(C(c2ccccn2)N2CC3(CCN(CCOc4ccccc4)CC3)C2)cc1` (centres unmarked) [Compound 104, 2-((4-chlorophenyl)(pyridin-2-yl)methyl)-7-(2-phenoxyethyl)-2,7-diazaspiro[3.5]nonane], the IC50 at human D2R/β-arrestin [1] (setting [7]) was > 30 µM; on human D2R/β-arrestin [5] it was 10000 to 30000 nM. For the same compound, the EC50 was > 30 µM on human D2R/β-arrestin [2] and 1000 to 10000 nM at human D2R/β-arrestin [3]. Also, the “Microsomal Stability: % remaining” value in data set [6] is “m45%”.

Regarding `CC(C)N(CC1CCN(CCOc2ccc(F)cc2)CC1)C(c1ccc(Cl)cc1)c1ccccn1` (centres unmarked) [Compound 135, N-((4-chlorophenyl)(pyridin-2-yl)methyl)-N-((1-(2-(4-fluorophenoxy)ethyl)piperidin-4-yl)methyl)propan-2-amine], the IC50 at human D2R/β-arrestin [1] (setting [7]) fell in the range of 0.1 to 1 µM; on human D2R/β-arrestin [5], 1000 to 10000 nM. Further, the EC50 is > 30 µM on human D2R/β-arrestin [2] and > 30000 nM at human D2R/β-arrestin [3]. Moreover, the “Microsomal Stability: % remaining” value in data set [6] was “m2%”.

For the compound `CN(CC1CCN(CCOc2ccc(C(F)(F)F)cc2)CC1)C(c1ccc(Cl)cc1)c1ccccn1` (centres unmarked) [Compound 137, 1-(4-chlorophenyl)-N-methyl-1-(pyridin-2-yl)-N-((1-(2-(4-(trifluoromethyl)phenoxy)ethyl)piperidin-4-yl)methyl)methanamine], the IC50 on human D2R/β-arrestin [1] (setting [7]) lay within 1 to 10 µM; at human D2R/β-arrestin [5], 1000 to 10000 nM. For the same compound, the 50% effective concentration (EC50) on human D2R/β-arrestin [2] is > 30 µM; on human D2R/β-arrestin [3], > 30000 nM. Further, the “Microsomal Stability: % remaining” value in data set [6] is listed as “m1%”.

Take `COc1cccc(C(NC(=O)C2CCN(CCOc3ccc(F)cc3F)CC2)c2ccccn2)c1` (centres unmarked) [Compound 145, 1-(2-(2,4-difluorophenoxy)ethyl)-N-((3-methoxyphenyl)(pyridin-2-yl)methyl)piperidine-4-carboxamide]: the IC50 on human D2R/β-arrestin [1] (setting [7]) lay in the range of 1 to 10 µM; at human D2R/β-arrestin [5] it was 1000 to 10000 nM. Besides, the 50% effective concentration (EC50) at human D2R/β-arrestin [2] was > 30 µM; at human D2R/β-arrestin [3] it was 10000 to 30000 nM.

With `Oc1c(CN2CCN(c3ccccn3)CC2)cc(Cl)c2cccnc12` [MLS1547, reference compound], the IC50 on human D2R/β-arrestin [1] (setting [7]) is > 30 µM; on human D2R/β-arrestin [5], 1000 to 10000 nM. Besides, the EC50 at human D2R/β-arrestin [2] was > 30 µM; at human D2R/β-arrestin [3], < 100 nM.

For `O=C1CCc2ccc(OCCCCN3CCCN(c4cccc(Cl)c4Cl)CC3)nc2N1` [UNC9975, reference compound], the IC50 on human D2R/β-arrestin [1] (setting [7]) fell in the range of 0.1 to 1 µM; on human D2R/β-arrestin [5], 100 to 1000 nM. Further, the EC50 was > 30 µM on human D2R/β-arrestin [2] and < 100 nM at human D2R/β-arrestin [3].

For `Clc1cccc(C2CCN(CCCOc3ccc4scnc4c3)CC2)c1Cl` [UNC9994, reference compound], the figures for the IC50 on human D2R/β-arrestin [1] (setting [7]) and at human D2R/β-arrestin [5] were > 30 µM and 100 to 1000 nM, respectively. The concentration for a half-maximal effect (EC50) is 0.1 to 1 µM on human D2R/β-arrestin [2] and < 100 nM at human D2R/β-arrestin [3].
